# From US6368788B1 (priority 1987, dated 2002)
# Several values for one entry are separate records, joined by “and”; a condition that tells them apart may be missing. Equal entries are not always repeated. Where two headings read alike, the source gives them in different places. Marks after values point to notes of the source that are not given here.
# Columns and labels:
# Staphylococcus aureus = test: Survival after Staphylococcus aureus peritonitis, therapeutic treatment 1 hour after challenge; type: in vivo, mice; details: for Percentage Survivors: ip therapeutic 1 hour after challenge
# Description: EXAMPLES 32-34, above, test substance (i.e., L-Glu-L-Trp alone or in combination with antibiotic, or antibiotic alone) was injected sc, ip, po one hour after the bacterial challenge.
# neutrophils = test: Neutrophil response to proteose peptone and phagocytic activity in CBA mice; type: in vivo; details: for Phagocytes (%) / Phagocytic Index: induced neutrophils; for Total Number of Cells Induced: neutrophil response to proteose peptone
# Dengue virus = test: Dengue Protocol B; parameters: species or system human; details: in vivo
# Description: Sixty Dengue virus infected patients (60) were entered into the trial; 36 were treated with L-Glu-L-Trp and 24 were treated using conventional therapy (i.e., controls).
# Staphylococci [1] = test: Chronic staphylococcal pyoderma, overview (Protocol A); parameters: species or system human; details: in vivo
# Description: The total clinical trial population eventually under examination consisted of 159 patients with pyoderma, including furunculitis, cellulitis, and folliculitis. Trial Protocol A1, below, details some of the results obtained in this trial. Medications were administered either im or intranasally for 5 consecutive days. Peripheral blood immune indices were decreased prior to treatment and following treatment with L-Glu-L-Trp were restored to within the normal range. […] Clinical improvement was correlated with return of the immune parameters to within the normal range of values. In certain patients, L-Glu-L-Trp was also topically applied as a sterile saline solution of medication for a period of 5 to 10 days at a dosage of 1 μg/kg body weight.
# [2] = test system: peripheral blood lymphocytes; test: Protocol A3 Group 1B: atypical pyoderma; type: in vivo, human
# Staphylococci [3] = test system: Staphylococci
# [4] = Group 1B atypical pyoderma, after L-Glu-L-Trp Therapy (n = 10)
# [5] = Following Stage 2, Abscess and indurative acne
# [6] = Following Stage 2, Chronic abscess pyoderma
substance,measurement,setting,value
L-Glu-L-Trp,Percentage Survivors,"Staphylococcus aureus; 24 hours, Glu-Trp dose 0.01 μg/kg",16.7%
same,Percentage Survivors,"Staphylococcus aureus; 24 hours, Glu-Trp dose 0.1 μg/kg",5.6*† %
same,Percentage Survivors,"Staphylococcus aureus; 24 hours, Glu-Trp dose 1 μg/kg",27.8† %
same,Percentage Survivors,"Staphylococcus aureus; 24 hours, Glu-Trp dose 10 μg/kg (alone or + Ampicillin)",66.7* %
same,Percentage Survivors,"Staphylococcus aureus; 24 hours, Glu-Trp dose 100 μg/kg (alone or + Ampicillin)",66.7* %
same,Percentage Survivors,"Staphylococcus aureus; 48 hours, Glu-Trp dose 0.01 μg/kg",0%
same,Percentage Survivors,"Staphylococcus aureus; 48 hours, Glu-Trp dose 0.1 μg/kg",0† %
same,Percentage Survivors,"Staphylococcus aureus; 48 hours, Glu-Trp dose 1 μg/kg",5.6† %
same,Percentage Survivors,"Staphylococcus aureus; 48 hours, Glu-Trp dose 10 μg/kg (alone or + Ampicillin)",38.9* %
same,Percentage Survivors,"Staphylococcus aureus; 48 hours, Glu-Trp dose 100 μg/kg (alone or + Ampicillin)",55.6* %
same,Percentage Survivors,"Staphylococcus aureus; 72 hours, Glu-Trp dose 0.01 μg/kg",0%
same,Percentage Survivors,"Staphylococcus aureus; 72 hours, Glu-Trp dose 0.1 μg/kg",0%
same,Percentage Survivors,"Staphylococcus aureus; 72 hours, Glu-Trp dose 1 μg/kg",0† %
same,Percentage Survivors,"Staphylococcus aureus; 72 hours, Glu-Trp dose 10 μg/kg (alone or + Ampicillin)",16.7* %
same,Percentage Survivors,"Staphylococcus aureus; 72 hours, Glu-Trp dose 100 μg/kg (alone or + Ampicillin)",33.3* %
same,Survival,"Staphylococcus aureus; ip, 1 hour after challenge",dose-response relationship between the amount of L-Glu-L-Trp administered ip and the survival of animals
same,Exudate cell concentration,neutrophils; 0.01 mg/kg,0.9×10^6
same,Neutrophil migration and phagocytic activity,neutrophils; 0.01 mg/kg,did not appear to stimulate neutrophil migration
same,Increase in percentage of phagocytic cells,"neutrophils; 1 mg/kg, six day ip pretreatment",1.5 fold and 1.7 fold
same,Phagocytes (%),neutrophils; 0.1 mg/kg (so in the source),17.8 ± 1.13%
same,Phagocytic Index,neutrophils; 0.1 mg/kg (so in the source),1.90 ± 0.05 No. bacteria/phagocyte
same,Phagocytes (%),neutrophils; 1 mg/kg,31.5 ± 0.4 %
same,Phagocytic Index,neutrophils; 1 mg/kg,1.89 ± 0.03 No. bacteria/phagocyte
same,Number of neutrophils induced by proteose peptone,neutrophils; ip pretreatment (0.1 mg/kg),doubled
same,Total Number of Cells Induced,neutrophils; 0.01 mg/kg ip pretreatment,50 ×10^6
same,Total Number of Cells Induced,neutrophils; 1 mg/kg ip pretreatment,80* ×10^6
same,"Neutrophils, Phagocytic Index","neutrophils; treated mice, sterile inflammatory agent",ns
same,Clinical outcome,Dengue virus,"reduction of fever, more rapid reduction of toxic symptoms"
same,Clinical outcome,Staphylococci [1],disappearance of skin manifestations and resolution of pyoderma
same,B-Lymphocytes,[2]; [4],0.14 ± 0 ×10^9/L
same,B-Lymphocytes % Normal Value,[2]; [4],(29%)
same,B-Lymphocytes (%),[2]; [4],8.5 ± 1%
same,Basophils (%),[2]; [4],0.1 ± 0%
same,Eosinophils (%),[2]; [4],0.5 ± 1%
same,Erythrocytes,[2]; [4],4.1 ± 0.1 10^12/L
same,IgA,[2]; [4],2.21 ± 0 g/L
same,IgA % Normal Value,[2]; [4],(117%)
same,IgG,[2]; [4],16.6 ± 2 g/L
same,IgG % Normal Value,[2]; [4],(154%)
same,IgM,[2]; [4],1.64 ± 0 g/L
same,IgM % Normal Value,[2]; [4],(104%)
same,Leukocytes,[2]; [4],6.2 ± 1 ×10^9/L
same,Leukocytes % Normal Value,[2]; [4],(93%)
same,Lymphocytes,[2]; [4],2.14 ± 0 ×10^9/L
same,Lymphocytes % Normal Value,[2]; [4],(76%)
same,"Lymphocytes, %",[2]; [4],34.5 ± 4%
same,"Monocytes, %",[2]; [4],2.3 ± 1.6%
same,"Neutrophils, %",[2]; [4],66.5 ± 3.2%
same,T-Lymphocytes,[2]; [4],0.87 ± 0 ×10^9/L
same,T-Lymphocytes % Normal Value,[2]; [4],(51%)
same,T-Lymphocytes (%),[2]; [4],55.1 ± 6%
same,T-helper,[2]; [4],0.53 ± 0 ×10^9/L
same,T-helper % Normal Value,[2]; [4],(40%)
same,T-helper (%),[2]; [4],32.1 ± 3%
same,T-suppressor,[2]; [4],0.49 ± 0 ×10^9/L
same,T-suppressor % Normal Value,[2]; [4],(126%)
same,T-suppressor (%),[2]; [4],23.1 ± 5%
same,"Blast Transform., Con-A","[2]; Group 1B, L-Glu-L-Trp Therapy",96.1 ± 4 % of PBL
same,"Blast Transform., PHA","[2]; Group 1B, L-Glu-L-Trp Therapy",87.5 ± 5 % of PBL
same,"Blast Transform., Staph-A","[2]; Group 1B, L-Glu-L-Trp Therapy",75.3 ± 1 % of PBL
same,Clinical outcome,[2]; in vivo,did not turn out to be effective clinically
same,"Blast Transformation, Con-A",Staphylococci [3]; After L-Glu-L-Trp Therapy,58.3 ± 3.9%
same,"Blast Transformation, HSA",Staphylococci [3]; After L-Glu-L-Trp Therapy,84.9 ± 5.5%
same,"Blast Transformation, PHA",Staphylococci [3]; After L-Glu-L-Trp Therapy,40.2 ± 3.9%
same,Number of Patients with Clinical Result: Improved,Staphylococci [3]; [5],1
same,Number of Patients with Clinical Result: Recovered,Staphylococci [3]; [5],4
same,Number of Patients with Clinical Result: Significantly Improved,Staphylococci [3]; [5],1
same,Number of Patients with Clinical Result: Recovered,Staphylococci [3]; [6],5
same,Number of Patients with Clinical Result: Significantly Improved,Staphylococci [3]; [6],2
same,Number of Patients with Clinical Result: Recovered,"Staphylococci [3]; Following Stage 2, Chronic furunculitis",10
